Columns and labels:
[1] = target: T1, MetL (Escherichia coli, UniProt P00562); assay: chymotrypsin-coupled PPIase assay, absorbance […] nm; type: biochemical; conditions: inhibitor; substrate N-Suc-Ala-Ala-cis-Pro-Phe-p-nitroanilide; two-fold molar excess of FK506, 5 min preincubation; 35 mM HEPES pH 8.0, 10 °C
T1 construct: ASKA clone in pCA24N, Ni-NTA purified from E. coli lacking six PPIs (SR18292)

[2] = target: T2, Cmk (Escherichia coli, UniProt P0A6I0); assay: chymotrypsin-coupled PPIase assay, absorbance […] nm; type: biochemical; conditions: inhibitor; substrate N-Suc-Ala-Ala-cis-Pro-Phe-p-nitroanilide; two-fold molar excess of FK506, 5 min preincubation; 35 mM HEPES pH 8.0, 10 °C
T2 construct: ASKA clone in pCA24N, Ni-NTA purified from E. coli lacking six PPIs (SR18292)
T2 sequence (P0A6I0 1-227): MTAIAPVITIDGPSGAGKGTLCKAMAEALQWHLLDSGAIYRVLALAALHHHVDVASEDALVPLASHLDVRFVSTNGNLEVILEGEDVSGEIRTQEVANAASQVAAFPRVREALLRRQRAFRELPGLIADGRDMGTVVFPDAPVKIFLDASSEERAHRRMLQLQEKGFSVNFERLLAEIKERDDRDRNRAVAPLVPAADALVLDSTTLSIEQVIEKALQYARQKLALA

T1 sequence (P00562 whole entry): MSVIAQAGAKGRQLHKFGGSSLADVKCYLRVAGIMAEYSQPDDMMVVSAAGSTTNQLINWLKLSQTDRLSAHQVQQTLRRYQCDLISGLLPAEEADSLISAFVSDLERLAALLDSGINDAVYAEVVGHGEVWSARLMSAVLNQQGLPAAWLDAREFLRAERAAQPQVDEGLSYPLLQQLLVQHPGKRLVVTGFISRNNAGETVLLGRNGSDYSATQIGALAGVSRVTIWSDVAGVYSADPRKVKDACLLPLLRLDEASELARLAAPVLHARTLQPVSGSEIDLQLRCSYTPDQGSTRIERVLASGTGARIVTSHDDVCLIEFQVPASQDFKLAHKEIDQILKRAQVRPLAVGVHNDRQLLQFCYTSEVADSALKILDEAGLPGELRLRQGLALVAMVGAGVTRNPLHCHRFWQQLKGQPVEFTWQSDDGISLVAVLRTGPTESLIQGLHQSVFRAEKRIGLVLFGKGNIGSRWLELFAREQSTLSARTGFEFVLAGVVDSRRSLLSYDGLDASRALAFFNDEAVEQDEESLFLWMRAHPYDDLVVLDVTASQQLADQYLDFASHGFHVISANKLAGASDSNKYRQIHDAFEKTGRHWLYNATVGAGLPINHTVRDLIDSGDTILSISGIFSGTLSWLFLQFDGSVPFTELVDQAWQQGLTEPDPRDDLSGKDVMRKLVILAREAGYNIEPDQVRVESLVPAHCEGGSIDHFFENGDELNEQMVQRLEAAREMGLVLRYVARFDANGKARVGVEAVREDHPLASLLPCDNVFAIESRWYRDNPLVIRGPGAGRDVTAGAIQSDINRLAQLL

C=CC[C@@H]1/C=C(\C)C[C@H](C)C[C@H](OC)[C@H]2O[C@@](O)(C(=O)C(=O)N3CCCC[C@H]3C(=O)O[C@H](/C(C)=C/[C@@H]3CC[C@@H](O)[C@H](OC)C3)[C@H](C)[C@@H](O)CC1=O)[C@H](C)C[C@@H]2OC [FK506]
chymotrypsin-coupled PPIase assay, absorbance 390 nm [1]: inhibition of the PPIase activity of MetL by the two-fold molar excess of FK506
chymotrypsin-coupled PPIase assay, absorbance 390 nm [2]: inhibition of the PPIase activity of Cmk by the two-fold molar excess of FK506

Source: paper PMC7461557, “Multicopy Suppressor Analysis of Strains Lacking Cytoplasmic Peptidyl-Prolyl cis/trans Isomerases Identifies Three New PPIase Activities in Escherichia coli That Includes the DksA Transcription Factor” (International Journal of Molecular Sciences, 2020)
